# Assay results as given in paper PMC8187357 (Communications Biology, 2021).
# Several values for one entry are separate records, joined by “and”; a condition that tells them apart may be missing. Equal values may be shown once. Entries after “also recorded” stand apart in the source; their conditions may differ.
# Key:
# [1] = molecular target: T1, VISTA (Homo sapiens, UniProt Q9H7M9); test: VISTA functional assay (IFN-γ release, human PBMC); format: cell-based; details: for IFNγ Rescue (%): inhibited by VISTA; for IFNγ Rescue (%) / IFN-γ: replicates; for IFN-γ: human PBMCs + anti-CD3/anti-CD28 + VISTA 2.5 µg/mL
# T1 construct: purchased R&D systems 126-B7
# T1 sequence (Q9H7M9 with tags, fused parts or gaps limits assumed): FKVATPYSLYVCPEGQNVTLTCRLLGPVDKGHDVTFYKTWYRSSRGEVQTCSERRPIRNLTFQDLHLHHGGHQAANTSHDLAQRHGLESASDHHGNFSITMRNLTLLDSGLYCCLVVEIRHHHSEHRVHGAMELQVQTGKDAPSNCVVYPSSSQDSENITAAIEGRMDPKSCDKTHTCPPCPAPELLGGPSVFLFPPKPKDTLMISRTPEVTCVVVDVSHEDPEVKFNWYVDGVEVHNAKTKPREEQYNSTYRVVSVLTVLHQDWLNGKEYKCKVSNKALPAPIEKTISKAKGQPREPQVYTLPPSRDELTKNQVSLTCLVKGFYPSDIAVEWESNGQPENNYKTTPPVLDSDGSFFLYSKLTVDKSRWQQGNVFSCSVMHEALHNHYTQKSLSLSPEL
# Method: The ability of CA-170 to rescue VISTA-mediated inhibition of IFN-γ release from anti-CD3/CD28-stimulated human PBMC was used to monitor the effect of CA-170 on VISTA functionality. Briefly, 96-well cell culture plates were pre-coated with recombinant human VISTA (2.5 µg/mL) and anti- human CD3 (2.5 µg/mL) overnight at 4 °C. Anti-human VISTA and isotype control antibodies were either coated along with the VISTA or incubated for 30 min next day before addition of cells. On the next day, plates were incubated with CA-170 for 30 min at different concentrations. Isolated PBMC (0.1 × 10^6 cells/well) and anti-human CD28 antibodies (1 µg/mL) were added to the wells. The culture was further incubated for 72 h at 37 °C with 5% CO2. After 72 h of incubation the cell culture supernatants were collected after brief centrifugation at 200 g x 5 min at 4 °C and processed for human IFN-γ measurement by ELISA following manufacturer’s protocol (R&D Systems; DY-285). Percent rescue of IFN-γ release was calculated by normalizing individual percent test agent IFN-γ release values to percent anti-CD3 and anti-CD28 antibodies stimulated IFN-γ release. EC50 values were derived by plotting transformed data into non-linear fit in sigmoidal dose–response curve using GraphPad Prism software (Version 7).
# [2] = system: human PBMCs; test: Cytokine induction in human PBMCs; format: cell-based; details: for IFNγ: 48 h, normal density, replicates
# Method: To determine the potential for any unforeseen T-cell agonist activity in humans, a study was conducted where human PBMCs from healthy donors were pre-cultured either at normal density (2 × 10^5 cells/well) or at high density (1 × 10^7 cells/mL) in vitro to increase cell–cell contacts and immune scanning as described[24] and then treated with CA-170 (10 nM to 1000 nM) IL-2, TNF-α and IFN-γ cytokine release was measured in the culture supernatants at 24 and 48 h. Human PBMCs stimulated with anti-CD3 alone or anti-CD3 + anti-CD28 antibodies served as positive controls for cytokine release in this assay.
# [3] = system: CT26 colon carcinoma; test: CT26 model, survival in combination with cyclophosphamide; format: in vivo, mouse; details: CT26
# Method: Studies in syngeneic models including B16 melanoma metastasis model and CT26 colon carcinoma subcutaneous model were performed as described. For the Docetaxel combination experiment in CT26 model, indicated dosage of docetaxel (Source: Docetere® injection by Dr Reddy’s Laboratories) was dosed intraperitoneally to animals. For the CA-170 combination groups, CA-170 (10 mg/kg/day, oral) was dosed ~10 min after docetaxel. Animal grouping, treatment efficacy assessment and %TGI calculations were performed as mentioned above. For the CT26 experiment with cyclophosphamide, 100 mg/kg of cyclophosphamide was dosed once on day 5 intraperitoneally after cell implantation (first day of dosing for all other groups). Anti-PD1 antibody (Clone J43 from BioXcel) was dosed intraperitoneally at 100 µg/animal once every week.
# [4] = Tolerability in the in vivo pharmacological studies (body weights, clinical signs); details: all in vivo pharmacological studies
# [5] = system: TNFα; test: CEREP 80 panel binding: Cytokines; details: 10 µM
# Method: (§1) CEREP 80 panel assay was carried out by Eurofins Cerep Panlabs facility at France. A series of binding assays was carried out to understand the off-target toxicity of CA-170. CA-170 was tested at 10 μM test concentration in duplicates. Compound binding was calculated as a % inhibition of the binding of a radioactively labeled ligand specific for each target. In each experiment the respective reference compound was tested concurrently with CA-170, and the data were compared with historical values determined at Eurofins. The experiment was accepted in accordance with Eurofins validation standard operating procedure. The results are expressed as a percent of control specific binding; (measured specific binding / control specific binding) × 100 and as a percent inhibition of control specific binding; 100−(measured specific binding / control specific binding) × 100 obtained in the presence of CA-170. The IC50 values (concentration causing a half-maximal inhibition of control specific binding) and Hill coefficients (nH) were determined by non-linear regression analysis of the competition curves generated with mean replicate values using Hill equation curve fitting.
# [6] = system: Sigma; test: CEREP 80 panel binding: Sigma; details: 10 µM
# Method: as §1
# [7] = system: NeuropeptideY Y1,Y2; test: CEREP 80 panel binding: NeuropeptideY; details: 10 µM
# Method: as §1
# [8] = system: Amine transporters DA, NE, 5HT; test: CEREP 80 panel binding: Amine transporters; details: 10 µM
# Method: as §1
# [9] = molecular target: T2, NeuropeptideY Y2 (Homo sapiens, UniProt P49146); test: Y2 assay, determination of IC50 (CEREP follow-up); format: binding
# T2 construct: Eurofins Cerep Panlabs (contract laboratory)
# T2 sequence (P49146 whole entry): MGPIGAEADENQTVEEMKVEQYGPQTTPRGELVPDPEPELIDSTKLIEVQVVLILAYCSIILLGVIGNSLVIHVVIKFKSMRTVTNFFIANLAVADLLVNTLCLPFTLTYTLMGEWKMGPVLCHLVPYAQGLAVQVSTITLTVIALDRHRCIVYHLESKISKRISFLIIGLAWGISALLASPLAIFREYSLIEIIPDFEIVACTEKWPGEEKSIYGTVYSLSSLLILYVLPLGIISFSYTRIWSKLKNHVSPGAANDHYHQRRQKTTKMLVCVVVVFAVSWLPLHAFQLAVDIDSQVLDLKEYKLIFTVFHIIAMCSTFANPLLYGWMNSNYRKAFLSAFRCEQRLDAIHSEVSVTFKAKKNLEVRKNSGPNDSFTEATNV
# Method: as §1
# Opioid & Opioid like DOP, KOP, MOP, NOP ≤9
# Nuclear receptors GR, PPARγ ≤7
# Ion Channels Ca2+, Kv, Skca, […] 1
# Amine transporters DA, NE, 5HT ≤1
# 25% effect at the highest validated testing concentration.
# [10] = molecular target: PD-L1 (Homo sapiens, UniProt Q9NZQ7); test: SPR and solution NMR using recombinant extracellular domains; format: binding; design: SPR and solution NMR using recombinant proteins containing extracellular domains; host or cells: E. coli (said of the solution NMR studies); details: recombinant proteins containing extracellular domains
# Sequence of PD-L1 (Q9NZQ7 19-238 limits assumed, species assumed): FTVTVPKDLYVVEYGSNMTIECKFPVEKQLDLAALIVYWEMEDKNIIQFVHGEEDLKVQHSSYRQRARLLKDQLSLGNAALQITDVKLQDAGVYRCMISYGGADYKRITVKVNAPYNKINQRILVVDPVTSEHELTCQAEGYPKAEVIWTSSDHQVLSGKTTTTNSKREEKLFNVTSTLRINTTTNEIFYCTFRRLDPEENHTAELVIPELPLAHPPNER
structure (smiles),measurement,setting,value
C[C@@H](O)[C@H](NC(=O)N[C@@H](CC(N)=O)c1nc([C@@H](N)CO)no1)C(=O)O [CA-170],IFNγ Rescue (%),[1]; 1.95 nM,-2.58% and 0.00% and 0.36%
same,IFNγ Rescue (%),[1]; 3.91 nM,-0.86% and 0.32% and 1.09%
same,IFNγ Rescue (%),[1]; 7.81 nM,5.58% and 4.87% and 6.18%
same,IFNγ Rescue (%),[1]; 15.63 nM,21.46% and 16.88% and 19.64%
same,IFN-γ,[1]; 31.25 nM,1018 pg/mL and 1268 pg/mL and 1298 pg/mL
same,IFNγ Rescue (%),[1]; 31.25 nM,36.91% and 37.66% and 42.55%
same,IFNγ Rescue (%),[1]; 62.50 nM,48.07% and 36.69% and 46.91%
same,IFNγ Rescue (%),[1]; 250.00 nM,107.73% and 72.73% and 91.64%
same,IFN-γ,[1]; 500 nM,2498 pg/mL and 2438 pg/mL and 2828 pg/mL
same,IFNγ Rescue (%),[1]; 500.00 nM,100.43% and 75.65% and 98.18%
same,rescue of IFNγ release inhibited by recombinant VISTA (in words),[1]; human PBMCs stimulated with anti-CD3 and anti-CD28,rescued IFNγ release
same,EC50,"[1]; mean ± S.D., n=4, read-out: Human PBMC IFN-γ Rescue EC50 VISTA",0.0829 µM
same,IFN-γ,"[2]; 24 hours, Normal density, 10nM",BLoD
same,IFN-γ,"[2]; 24 hours, Normal density, 50nM",BLoD
same,IFN-γ,"[2]; 24 hours, Normal density, 100nM",BLoD
same,IFN-γ,"[2]; 24 hours, Normal density, 250nM",BLoD
same,IFN-γ,"[2]; 24 hours, Normal density, 500nM",BLoD
same,IFN-γ,"[2]; 24 hours, Normal density, 1000nM",BLoD
same,IFNγ,[2]; 10 nM,BLOD
same,IFNγ,[2]; 50 nM,BLOD
same,IFNγ,[2]; 100 nM,BLOD
same,IFNγ,[2]; 250 nM,BLOD
same,IFNγ,[2]; 500 nM,BLOD
same,IFNγ,[2]; 1000 nM,BLOD
same,IFN-γ,"[2]; human, 24 h, 10 nM",2.8 ± 1.9 pg/mL
same,IFN-γ,"[2]; human, 24 h, 50 nM",1.5 ± 1.0 pg/mL
same,IFN-γ,"[2]; human, 24 h, 100 nM",1.5 ± 0 pg/mL
same,IFN-γ,"[2]; human, 24 h, 250 nM",4.0 ± 0.7 pg/mL
same,IFN-γ,"[2]; human, 24 h, 500 nM",6.8 ± 1.5 pg/mL
same,IFN-γ,"[2]; human, 24 h, 1000 nM",5.8 ± 1.4 pg/mL
same,cytokine induction (in words),[2]; normal and high-density culture conditions,did not induce significant levels of cytokines
same,survival advantage vs vehicle + CTX (in words),[3]; CA-170 3 mg/kg/day + single dose CTX 100 mg/kg,Statistically significant survival advantage
same,survival advantage vs vehicle + CTX (in words),[3]; CA-170 10 mg/kg/day + single dose CTX 100 mg/kg,Statistically significant survival advantage
same,"tolerability (body weights, clinical signs; in words)",[4],well tolerated
same,% Inhibition of Control Specific Binding,[5],< 0%
same,% Inhibition of Control Specific Binding,[6],20%
same,% Inhibition of Control Specific Binding,[7],≤ 78%
same,% Inhibition of Control Specific Binding,[8],≤ 1%
same,EC50 value (Y2 assay taken for determination of IC50),[9]; Y2,not calculable
same,effect at the highest validated testing concentration,[9]; Y2 concentration-response curve,less than 25%
same,binding to PD-L1 by SPR and solution NMR (in words),[10],a definitive binding could not be established; also recorded: lack of binding
